{"source": "patent US9428497B2", "about": "“Precursor compounds for the radiosynthesis of [18F] norchloro-fluorohomoepibatidine” (priority 2011, dated 2016)", "origin": "cited, not measured here", "key": {"[1]": {"details": "piglets; compared with 2-[18F]F-A-85380"}, "[2]": {"details": "mice; compared with 2-[18F]F-A-85380"}}, "note": "Read-outs that look alike come from different tables or passages of the source."}
{"compound": "[18F]c1ccc(C2CC3CCCC2N3)cn1", "note": "(single isomer, unassigned; (-)) [(−)-[^18F]NCFHEB, (−)-[^18F]norchloro-fluoro-homoepibatidine]", "values": [{"measurement": "cerebral uptake relative to 2-[18F]F-A-85380", "setting": "[1]", "result": "more than two times higher"}, {"measurement": "cerebral uptake relative to 2-[18F]F-A-85380", "setting": "[2]", "result": "more than two times higher"}]}
